Experiments:
[1] = tested on: Propionibacterium acnes ATCC 6919; experiment: MIC by broth microdilution; assay type: cell-based; settings: Wilkins-Chalgren broth, 10^5 CFU/ml, 48 h, N2:CO2:H2 (80:10:10)
[2] = tested on: Staphylococcus aureus L165; settings: Iso-Sensitest broth, 10^4 CFU/ml, 20-24 h, 37° C.
[3] = tested on: Staphylococcus aureus Smith; settings: Iso-Sensitest broth, 10^4 CFU/ml, 20-24 h, 37° C.
[4] = tested on: Staphylococcus epidermidis ATCC 12228; settings: Iso-Sensitest broth, 10^4 CFU/ml, 20-24 h, 37° C.
[5] = tested on: Staphylococcus haemolyticus L602; settings: Iso-Sensitest broth, 10^4 CFU/ml, 20-24 h, 37° C.
[6] = tested on: Enterococcus faecalis ATCC 7080; settings: Iso-Sensitest broth, 10^4 CFU/ml, 20-24 h, 37° C.
[7] = tested on: Clostridium perfringens L290; settings: Wilkins-Chalgren broth, 10^5 CFU/ml, 48 h, N2:CO2:H2 (80:10:10)

Structure (SMILES)	M.I.C. [1]	M.I.C. [2]	M.I.C. [3]	M.I.C. [4]	M.I.C. [5]	M.I.C. [6]	M.I.C. [7]
Cc1oc2nc1C(=O)NC(CC(N)=O)c1nc(cs1)C(=O)NC(Cc1ccccc1)C1=NC(CS1)C(=O)NC(Cc1ccc(O)cc1)C(=O)N1C(O)CC(C)C1c1nc(cs1)-c1nc(cs1)-c1nc(-c3nc(C(N)=O)cs3)ccc1-2 (centres unmarked) [GE37468B]	0.016 microgram/ml	0.03 microgram/ml	0.03 microgram/ml	0.06 microgram/ml	0.13 microgram/ml	0.03 microgram/ml	0.016 microgram/ml
C=C(NC(=O)c1csc(-c2ccc3c(n2)-c2csc(n2)-c2csc(n2)C2C(C)CC(O)N2C(=O)C(Cc2ccc(O)cc2)NC(=O)C2CSC(=N2)C(Cc2ccccc2)NC(=O)c2csc(n2)C(CC(N)=O)NC(=O)c2nc-3oc2C)n1)C(N)=O (centres unmarked) [GE37468C]	0.616 microgram/ml	0.03 microgram/ml	0.03 microgram/ml	0.25 microgram/ml	0.13 microgram/ml	0.03 microgram/ml	0.016 microgram/ml

— patent US5618724A, “Antibiotics GE 37468 A, B and C” (Gruppo Lepetit SpA, priority 1996, dated 1997)
